One compound from patent publication US11571418B2, “Platinum compounds that inhibit constitutive STAT3 signaling and induce cell cycle arrest and apoptosis of malignant cells” (H. LEE MOFFITT CANCER CENTER AND RESEARCH INSTITUTE, INC., priority 2011, dated 2023) can be followed below.

The structures appear in SMILES notation.

One assay relates to MDA-MD-231. The assay is described as follows: TUNEL analysis of apoptosis. Format: cell-based, human. Particulars: 48 h. From the text: (§1) FIGS. 7A-7C. TUNEL analysis of PLATINUM-401-mediated apoptosis. (FIG. 7A) Normal NIH3T3 fibroblasts and their v-Src-transformed counterparts (NIH3T3/v-Src), human breast carcinoma cell lines (MDA-MB-453, MDA-MB-435, MDA-MB-468, and MDA-MB-231), human non-small cell lung cancer cell line (A549), human prostate cancer cell line (DU145), multiple myeloma 5TGM1 (mouse) and U266 (human) cell lines, mouse melanoma cell line (B16) and human pancreatic cancer cell line (Panc1) were all treated with or without PLATINUM-401 for 48 h and analyzed by TUNEL for DNA damage. For each cell line, the activated Stat3 status is indicated as (−), no constitutively-active Stat3 and (+), constitutively-active Stat3 (see FIG. 5A). Data are representative of 3 independent determinations; (FIG. 7B) Human breast cancer cell lines (MDA-MB-453, MDA-MB-468 and MDA-MB-435) were transfected with or without Stat3β or Stat3 antisense (Stat3AS), or were treated with or without Stat3 peptidomimetic inhibitor, ISS 610 (1 mM) or PLATINUM-401 (5 μM)). Forty-eight hours afterwards, cells were harvested and processed for TUNEL analysis; (FIG. 7C) The viral Src-transformed NIH3T3/v-Src fibroblasts were transfected with or without wild-type Stat3 (pRc/CMV Stat3 Flag) and treated with or without 5 μM PLATINUM-401 for 36 h. Cells were subsequently harvested for nuclear extracts preparation and Stat3 DNA-binding assay in vitro with EMSA analysis (left panel), or were processed for TUNEL analysis (right panel).
(§2) Cell proliferation and TUNEL assays—Proliferating cells were first treated with or without PLATINUM-401 for up to 48 h. A portion of cells were harvested for BrdU incorporation following the manufacturer's (BD Biosciences Pharmingen, San Diego, Calif.) instructions and analyzed by flow cytometry. Harvested cells were also analyzed for apoptosis via detection of TdT-mediated dUTP nick-end labeling (TUNEL) assay using Apoptosis Detection Systems Fluorescein according to the manufacturer's (Roche, Indianapolis, Ind.) instructions. Oligonucleotides and plasmids Transfections. The Stat3 antisense (5′-[…]-3′) (SEQ ID NO:3) or control mismatch oligonucleotides (5′-[…]-3′) (SEQ ID NO:4) were synthesized using phosphorothioate chemistry and were synthesized with 2′-Omethoxyethyl modification of the five terminal nucleotides (underlined; (Mora et al., 2002; Karras et al., 2000)) to increase stability. Transfections of Stat3AS and plasmids were carried out with Lipofectamine 2000 (LF) according to the manufacturer's instructions (Invitrogen, Carlsbad, Calif.). Briefly, cells were seeded at 1-2×10^6 cells/10-cm tissue-culture plates 18 h before transfection. Immediately before transfection, cells were washed once with PBS. Cells were transfected with luciferase reporters (4 μg) in the presence or absence of v-Src (4 μg), or were transfected with Stat3β (4 μg) or pRC/CMV Stat3 Flag (4 μg). Stat3AS transfections were carried out LF alone, or with LF/Stat3 antisense oligonucleotides, or LF/Stat3 mismatch oligonucleotides (final concentration of the oligonucleotides was 250 nM). After 2-3 h, the transfection medium was aspirated and cells washed with PBS before fresh medium added containing 10% FBS was added.
(§3) Cells were analyzed for DNA-strand breaks by TUNEL staining. […] The incidence of apoptosis correlated with the prevalence of constitutively-active Stat3 in malignant cells (FIG. 7, lower panel). Moreover, the incidence of apoptosis by PLATINUM-401 in breast cancer cell lines (MDA-MB-468 and MDA-MB-435) harboring constitutively-active Stat3 compares favorably to that induced by other previously investigated Stat3 inhibitory approaches, such as Stat3β (Garcia et al., 2001), Stat3 antisense (Stat3AS) (Mora et al., 2002), peptidomimetic inhibitor of Stat3 (ISS 610) (FIG. 7B) (Turkson et al., 2004c), and contrasts with the absence of apoptosis in breast cancer cell line, MDA-MB-453 that lacks constitutively-active Stat3. […]

Another assay deals with DU145. The assay is described as follows: TUNEL analysis of apoptosis. In kind it is cell-based, human. Conditions: 48 h.
From the text: as §1, §2, §3

In a further assay the test system is Panc1. The assay is described as follows: TUNEL analysis of apoptosis. Format: cell-based, human. Conditions: 48 h.
From the text: as §1, §2, §3

For a further assay, the system named is MDA-MB-453. Nature of the assay: TUNEL analysis of apoptosis. Format: cell-based, human. Particulars: 48 h, no aberrant Stat3 activity.
From the text: as §1, §2, §3

Another assay deals with U266. The assay is described as follows: TUNEL analysis of apoptosis. Format: cell-based, human. Particulars: 48 h.
From the text: as §1, §2, §3

Another assay concerns pLucSRE. Nature of the assay: c-fos promoter-driven luciferase reporter assay. Format: cell-based. Conditions: transient transfection in mouse fibroblasts. The procedure: FIGS. 3A-3D. Inhibition of Stat3-mediated gene expression by PLATINUM-401. (FIG. 3A) and (FIG. 3B) v-Src-transformed mouse fibroblasts that stably express Stat3-dependent (NIH3T3/v-Src/pLucTKS3) and Stat3-independent (NIH3T3/v-Src/pRLSRE) luciferase reporters or β-galactosidase (β-gal), as well as normal mouse fibroblast (NIH3T3) transiently transfected with pLucTKS3, pGL2-VEGF-Luc, NFkB-Luc or pLucSRE together with or without v-Src were treated with or without PLATINUM-401 for 48 h. Cytosolic extracts were then prepared from cells for luciferase and […] activities measurements. […]
Cell proliferation and TUNEL assays—Proliferating cells were first treated with or without PLATINUM-401 for up to 48 h. A portion of cells were harvested for BrdU incorporation following the manufacturer's (BD Biosciences Pharmingen, San Diego, Calif.) instructions and analyzed by flow cytometry. Harvested cells were also analyzed for apoptosis via detection of TdT-mediated dUTP nick-end labeling (TUNEL) assay using Apoptosis Detection Systems Fluorescein according to the manufacturer's (Roche, Indianapolis, Ind.) instructions. […]
To further investigate the activities of PLATINUM-401, the inventors treated malignant cells and measured effects on Stat3 signaling. […]
On the technique in general: A reporter such as luciferase makes a cellular process visible.

As to `CC(O)CN1CCN(CC(C)O)CC1` (stereo not drawn) [PLATINUM-401], the TUNEL staining result in the assay with MDA-MD-231 is “Significant TUNEL staining”; in the assay with DU145 it was “Significant TUNEL staining”; in the assay on Panc1, “Significant TUNEL staining”; in the assay on MDA-MB-453 it was “no TUNEL staining”; with U266, “Significant TUNEL staining”. Besides, in the assay on pLucSRE, the “induction of c-fos promoter-driven luciferase reporter activity” value is recorded as “no inhibitory effects”.
